Experimental data as given in paper PMC10178127, “Immunomodulatory Effects of the Pea Defensin Psd1 in the Caco-2/Immune Cells Co-Culture upon Candida albicans Infection” (International Journal of Molecular Sciences, 2023).

Assays:
Candida albicans enzymes = details: cited from earlier work
CD14+ blood monocytes = test: Multiplex xMAP cytokine production, direct stimulation of monocytes; type: cell-based, human; details: 24 h
Method: Primary peripheral blood mononuclear cells (PBMCs) collected from healthy donors were purchased from American Type Culture Collection (ATCC PCS-800-011). Primary CD14^+ blood monocytes were isolated from PBMCs by adherence according to standard technique. Monocyte-derived mature dendritic cells (moDCs) were obtained from CD14^+ blood monocytes according to the previously reported protocol. Briefly, blood monocytes were incubated in a complete RPMI-1640 medium (Capricorn Scientific, Ebsdorfergrund, Germany), containing 10% fetal bovine serum (FBS, Capricorn Scientific, Ebsdorfergrund, Germany), 1× antibiotic-antimycotic solution (Invitrogen, Waltham, MA, USA), 800 U/mL rhGM-CSF (Sci-Store, Moscow, Russia) and 500 U/mL rhIL-4 (Sci-Store) for 3 days in CellXpert C170i CO2-incubator (Eppendorf, Hamburg, Germany). Fresh complete RPMI-1640 medium with rhGM-CSF and rhIL-4 was added to the culture on day 3. On day 5, fresh complete RPMI-1640 containing 100 U/mL rhTNF-α (Sigma-Aldrich, St. Louis, MO, USA) as well as 800 U/mL rhGM-CSF and 500 U/mL rhIL-4 was added and the culture was incubated for another 4 days until full maturation.
Monocytes and moDCs were seeded into the wells of 48- and 24-well plates in the complete RPMI-1640 medium supplemented with 10% human AB serum (HABS, Capricorn Scientific) without antibiotics 24 h prior to the experiment, and kept in a humidified CO2-incubator (5% CO2, 37 °C). After 24 h, the medium in the wells of the 48-well plate was replaced by fresh complete RPMI-1640 medium with 10% HABS, supplemented with 2 µM of Psd1 for the sample wells or fresh medium alone for the control wells. Medium in the wells of the 24-well plate was replaced by fresh complete RPMI-1640 medium with 10% human serum without antibiotics. Then, Millicell inserts with Caco-2 monolayers with TEER > 400 Ωcm^2 were placed into the wells of the 24-well plate, containing monocytes or moDCs. Wells with Millicell inserts with Caco-2 monolayers without immune cells were used as control wells. Medium in apical chambers of Millicell inserts was replaced by fresh complete RPMI-1640 with 10% human serum medium containing Psd1 at the final concentration of 2 µM or Candida albicans at the concentration of 5 × 10^4 cells/mL or yeast cells together with the pea defensin at the same concentration. Fresh complete RPMI-1640 medium only with 10% human serum and without antibiotics was used in control wells. Plates were kept in CO2-incubator (5% CO2, 37 °C) for another 24 h. Culture supernatants from the wells of the 48-well plate and basolateral chambers of the 24-well plate were collected and stored at −70 °C degrees less than one month prior to the analytes assessment.
The following 48 analytes were measured at a protein level by multiplex xMAP technology using the MILLIPLEX Human Cytokine/Chemokine/Growth Factor Panel A kit (HCYTA-60K-PX48, Merck, Darmstadt, Germany): sCD40L, EGF, Eotaxin-1/CCL11, FGF-2/FGF-basic, Flt-3 ligand, Fractalkine/CX3CL1, G-CSF, GM-CSF, GROα/CXCL1, IFNα2, IFNγ, IL-1α, IL-1β, IL-1RA, IL-2, IL-3, IL-4, IL-5, IL-6, IL-7, IL-8/CXCL8, IL-9, IL-10, IL-12(p40), IL-12(p70), IL-13, IL-15, IL-17A/CTLA8, IL-17E/IL-25, IL-17F, IL-18, IL-22, IL-27, IP-10/CXCL10, MCP-1/CCL2, MCP-3/CCL7, M-CSF, MDC/CCL22, MIG/CXCL9, MIP-1α/CCL3, MIP-1β/CCL4, PDGF-AA, PDGF-AB/BB, RANTES/CCL5, TGFα, TNFα, TNFβ, and VEGF-A. Multiplex-based assay read-out was performed using the MAGPIX system (Merck) with the xPONENT 4.2 software (Merck) in accordance with the manufacturer’s instruction with overnight incubation of the samples with primary antibodies. A final analysis was carried out with the MILLIPLEX Analyst v5.1 software (Merck). Measurements were performed twice for each sample. Release of the analytes in control and experimental samples was compared with an unpaired two-sample t-test using GraphPad Prism v.8.0.1 (GraphPad Software, Inc., San Diego, CA, USA). The p values ≤ 0.05 were considered significant.

Substance: Psd1: pea defensin from Pisum sativum (UNIPROT P81929), recombinant peptide overexpressed in Escherichia coli (KTCEHLADTYRGVCFTNASCDDHCKNKAHLISGTCHNWKCFCTQNC; UniProt P81929 1-46, looked up)
- stability to proteolysis by Candida albicans enzymes (Candida albicans enzymes): stable to proteolysis by Candida albicans enzymes
- EGF level (CD14+ blood monocytes; Mono+Psd1, 2 µM, supernatant): 8.15 pg/mL
- Eotaxin level (CD14+ blood monocytes; Mono+Psd1, 2 µM, supernatant): <3.52↓ pg/ml
- FGF-2 level (CD14+ blood monocytes; Mono+Psd1, 2 µM, supernatant): 41.38 pg/mL
- FLT-3L level (CD14+ blood monocytes; Mono+Psd1, 2 µM, supernatant): 0.65 pg/mL
- Fractalkine level (CD14+ blood monocytes; Mono+Psd1, 2 µM, supernatant): <17.82↓ pg/ml
- G-CSF level (CD14+ blood monocytes; Mono+Psd1, 2 µM, supernatant): 52.17 pg/mL
- GM-CSF level (CD14+ blood monocytes; Mono+Psd1, 2 µM, supernatant): 12.61 pg/mL
- GROa level (CD14+ blood monocytes; Mono+Psd1, 2 µM, supernatant): 1254 pg/mL
- IFNa2 level (CD14+ blood monocytes; Mono+Psd1, 2 µM, supernatant): 12.78 pg/mL
- IFNg level (CD14+ blood monocytes; Mono+Psd1, 2 µM, supernatant): <2.23↓ pg/ml
- IL-1RA level (CD14+ blood monocytes; Mono+Psd1, 2 µM, supernatant): 4.01 pg/mL
- IL-1a level (CD14+ blood monocytes; Mono+Psd1, 2 µM, supernatant): 14.17 pg/mL
- IL-1b level (CD14+ blood monocytes; Mono+Psd1, 2 µM, supernatant): <2.26↓ pg/ml
- IL-2 level (CD14+ blood monocytes; Mono+Psd1, 2 µM, supernatant): 1.12 pg/mL
- IL-3 level (CD14+ blood monocytes; Mono+Psd1, 2 µM, supernatant): <0.60↓ pg/ml
- IL-4 level (CD14+ blood monocytes; Mono+Psd1, 2 µM, supernatant): <1.14↓ pg/ml
- IL-5 level (CD14+ blood monocytes; Mono+Psd1, 2 µM, supernatant): <0.30↓ pg/ml
- IL-6 level (CD14+ blood monocytes; Mono+Psd1, 2 µM, supernatant): 478.09 pg/mL
- IL-7 level (CD14+ blood monocytes; Mono+Psd1, 2 µM, supernatant): <0.38↓ pg/ml
- IL-8 level (CD14+ blood monocytes; Mono+Psd1, 2 µM, supernatant): 6178 pg/mL
- IL-9 level (CD14+ blood monocytes; Mono+Psd1, 2 µM, supernatant): 3.19 pg/mL
- IL-10 level (CD14+ blood monocytes; Mono+Psd1, 2 µM, supernatant): 22.94 pg/mL
- IL-12 (p40) level (CD14+ blood monocytes; Mono+Psd1, 2 µM, supernatant): 19.24 pg/mL
- IL-12 (p70) level (CD14+ blood monocytes; Mono+Psd1, 2 µM, supernatant): <1.68↓ pg/ml
- IL-13 level (CD14+ blood monocytes; Mono+Psd1, 2 µM, supernatant): 11.06 pg/mL
- IL-15 level (CD14+ blood monocytes; Mono+Psd1, 2 µM, supernatant): 1.44 pg/mL
- IL-17A level (CD14+ blood monocytes; Mono+Psd1, 2 µM, supernatant): 3.18 pg/mL
- IL-17E/IL-25 level (CD14+ blood monocytes; Mono+Psd1, 2 µM, supernatant): <18.85↓ pg/ml
- IL-17F level (CD14+ blood monocytes; Mono+Psd1, 2 µM, supernatant): <19.03↓ pg/ml
- IL-18 level (CD14+ blood monocytes; Mono+Psd1, 2 µM, supernatant): 0.8 pg/mL
- IL-22 level (CD14+ blood monocytes; Mono+Psd1, 2 µM, supernatant): 10.35 pg/mL
- IL-27 level (CD14+ blood monocytes; Mono+Psd1, 2 µM, supernatant): 59.83 pg/mL
- IP-10 level (CD14+ blood monocytes; Mono+Psd1, 2 µM, supernatant): 165.32 pg/mL
- M-GSF level (CD14+ blood monocytes; Mono+Psd1, 2 µM, supernatant): 29.48 pg/mL
- MCP-1 level (CD14+ blood monocytes; Mono+Psd1, 2 µM, supernatant): 6617 pg/mL
- MCP-3 level (CD14+ blood monocytes; Mono+Psd1, 2 µM, supernatant): 371.63 pg/mL
- MDC level (CD14+ blood monocytes; Mono+Psd1, 2 µM, supernatant): 864.86 pg/mL
- MIG level (CD14+ blood monocytes; Mono+Psd1, 2 µM, supernatant): 1166 pg/mL
- MIP-1a level (CD14+ blood monocytes; Mono+Psd1, 2 µM, supernatant): 118.6 pg/mL
- MIP-1b level (CD14+ blood monocytes; Mono+Psd1, 2 µM, supernatant): 254.87 pg/mL
- PDGF-AA level (CD14+ blood monocytes; Mono+Psd1, 2 µM, supernatant): 26.77 pg/mL
- PDGF-AB/BB level (CD14+ blood monocytes; Mono+Psd1, 2 µM, supernatant): 543.88 pg/mL
- RANTES level (CD14+ blood monocytes; Mono+Psd1, 2 µM, supernatant): 59.35 pg/mL
- TGF-a level (CD14+ blood monocytes; Mono+Psd1, 2 µM, supernatant): 2.23 pg/mL
- TNFa level (CD14+ blood monocytes; Mono+Psd1, 2 µM, supernatant): 90.69 pg/mL
- TNFb level (CD14+ blood monocytes; Mono+Psd1, 2 µM, supernatant): 2.7 pg/mL
- VEGFa level (CD14+ blood monocytes; Mono+Psd1, 2 µM, supernatant): 4.16 pg/mL
- sCD40L level (CD14+ blood monocytes; Mono+Psd1, 2 µM, supernatant): 98.67 pg/mL
- increase in IL-12, IL-15, IL-27 and MCP-1 (CD14+ blood monocytes; monocytes, 2 μM): failed to reach statistical significance
- production of TNFα, IL-6, IL-8, IP-10, MCP-3, and G-CSF (CD14+ blood monocytes; monocytes, 2 μM): increased
